Values quoted from earlier work, collected in patent US7235236B2, “Polynucleotide encoding human adenylylcyclase VI and uses thereof for enhancing cardiac function” (priority 1995, dated 2007).

Test system: GRK
Conditions: chronic reduction of beta1-AR activation

**Q.** With `CC(C)NCC(O)COc1ccc(COCCOC(C)C)cc1` (stereo not shown) [bisoprolol] as the compound, how does the “GRK activity after chronic treatment” value read?
**A.** The value was “downregulation of GRK activity”.
